Experimental data reported in ChEMBL document CHEMBL1154782, “Discovery of Trp-His and His-Arg analogues as new structural classes of short antimicrobial peptides” (J Med Chem, 2009).
Values after ≈ are worked out from the molar mass of the structure shown.

Columns and labels:
[1] = tested on: Candida albicans; assay: Antifungal activity against Candida albicans ATCC 10231 after 15 to 18 hrs under aerobic condition by modified broth microdilution method; format: functional
[2] = tested on: Staphylococcus epidermidis; assay: Antibacterial activity against methicillin-resistant Staphylococcus epidermidis DSM 50160384; format: functional, organism-based
[3] = tested on: Staphylococcus aureus; assay: Antibacterial activity against methicillin-resistant Staphylococcus aureus DSM 50128509 after 15 to 18 hrs under aerobic condition by modified broth microdilution method; format: functional
[4] = tested on: Staphylococcus aureus; assay: Antibacterial activity against methicillin-resistant Staphylococcus aureus DSM 50128509; format: functional, organism-based
[5] = tested on: L929; assay: Cytotoxicity against mouse L929 cells up to 200 ug/mL after 5 days by MTT assay; format: cell-based; settings: l929, 120 h
[6] = tested on: Candida albicans; assay: Antifungal activity against Candida albicans ATCC 10231; format: functional, organism-based
[7] = tested on: Klebsiella pneumoniae; assay: Antibacterial activity against Klebsiella pneumoniae ATCC 700603; format: functional, organism-based
[8] = tested on: Pseudomonas aeruginosa; assay: Antibacterial activity against Pseudomonas aeruginosa ATCC 9027; format: functional, organism-based
[9] = tested on: Klebsiella pneumoniae; assay: Antibacterial activity against Klebsiella pneumoniae ATCC 700603 after 15 to 18 hrs under aerobic condition by modified broth microdilution method; format: functional
[10] = tested on: Escherichia coli; assay: Antibacterial activity against Escherichia coli ATCC 35218; format: functional, organism-based
[11] = tested on: Pseudomonas aeruginosa; assay: Antibacterial activity against Pseudomonas aeruginosa ATCC 9027 after 15 to 18 hrs under aerobic condition by modified broth microdilution method; format: functional
[12] = tested on: Staphylococcus epidermidis; assay: Antibacterial activity against methicillin-resistant Staphylococcus epidermidis DSM 50160384 after 15 to 18 hrs under aerobic condition by modified broth microdilution method; format: functional
[13] = tested on: Escherichia coli; assay: Antibacterial activity against Escherichia coli ATCC 35218 after 15 to 18 hrs under aerobic condition by modified broth microdilution method; format: functional

Work on `COC(=O)[C@H](CCCNC(=N)N)NC(=O)[C@H](Cc1c[nH]c(C23CC4CC(CC(C4)C2)C3)n1)NC(=O)OC(C)(C)C` yielded an MIC [1] of 200 µg/mL (≈ 357 µM), an IC50 [2] of 6.87 µg/mL (≈ 12.3 µM) and an MIC [3] of 50 µg/mL (≈ 89.3 µM). The IC50 [4] was 9.77 µg/mL (≈ 17.5 µM), the Activity [5] was “Non-toxic” and the IC50 [6] was 16.1 µg/mL (≈ 28.8 µM). It also gave an IC50 [7] of 31.5 µg/mL (≈ 56.2 µM), an IC50 [8] of 25.7 µg/mL (≈ 45.9 µM) and an MIC [9] of 200 µg/mL (≈ 357 µM). For the same compound, the IC50 [10] was 8.33 µg/mL (≈ 14.9 µM), the MIC [11] was 100 µg/mL (≈ 179 µM) and the MIC [12] was 50 µg/mL (≈ 89.3 µM). For the same compound, the MIC [13] was 100 µg/mL (≈ 179 µM).
